Assay results from patent publication US12150995B2, “IRAK degraders and uses thereof” (Kymera Therapeutics, Inc., priority 2020, dated 2024).

These compounds were tested against T1, IRAK4 (Homo sapiens, UniProt Q9NWZ3) (assay: IRAK4 MSD Degradation in OCI-LY10). Conditions: OCI-LY10 cells, Meso Scale Discovery, incubated 4 to 24 hours.
T1 construct: endogenous in cells; host or cells: OCI-LY10
T1 sequence (Q9NWZ3 1-460): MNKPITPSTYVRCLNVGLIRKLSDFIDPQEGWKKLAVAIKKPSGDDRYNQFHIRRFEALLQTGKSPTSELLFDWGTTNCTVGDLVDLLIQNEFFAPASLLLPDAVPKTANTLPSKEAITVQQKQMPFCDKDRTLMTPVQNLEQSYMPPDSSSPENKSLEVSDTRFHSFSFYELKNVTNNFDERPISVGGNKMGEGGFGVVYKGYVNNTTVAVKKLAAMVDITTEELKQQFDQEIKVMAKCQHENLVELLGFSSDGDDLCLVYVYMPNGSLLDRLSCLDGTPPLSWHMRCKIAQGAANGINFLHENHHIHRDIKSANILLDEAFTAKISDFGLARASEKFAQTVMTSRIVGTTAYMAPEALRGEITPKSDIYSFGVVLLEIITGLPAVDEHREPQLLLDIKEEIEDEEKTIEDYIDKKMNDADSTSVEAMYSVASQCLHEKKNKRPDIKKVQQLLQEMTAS
Format: cell-based
Method in brief: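 IRAK4 degradation was quantified by Meso Scale electrochemiluminescence (anti-IRAK4 capture and detection antibodies) in lysates of treated OCI-LY10 cells. Compounds were dosed at 8 concentrations (1:3 dilutions, top 1 to 10 μM) for 4 to 24 h; DC50 derived by three-parameter logistic fitting.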

Going from `COc1cc2nn([C@H]3CC[C@H](CN4CCC(c5cccc6c5n(C)c(=O)n6C5CCC(=O)NC5=O)CC4)CC3)cc2cc1NC(=O)c1ccc(C(F)(F)F)nc1` (some centres unmarked) [I-194] to `COc1cc2nn([C@H]3C[C@H](CN4CCC(c5cccc6c5n(C)c(=O)n6C5CCC(=O)NC5=O)CC4)C3)cc2cc1NC(=O)c1cccc(C(F)(F)F)n1` (some centres unmarked) [I-33], the DC50 falls from greater than 200 nM to less than 10 nM.

`Cn1c(=O)n(C2CCC(=O)NC2=O)c2ccc(F)c(C3CCN(C[C@H]4C[C@H](n5cc6cc(NC(=O)c7cccc(C(F)(F)F)n7)c(Cl)cc6n5)C4)CC3)c21` (some centres unmarked) [I-142] and `Cc1cc2nn([C@H]3CC[C@H](CN4CCN(c5cccc6c5n(C)c(=O)n6[C@H]5CCC(=O)NC5=O)CC4)CC3)cc2cc1NC(=O)c1cccc(C(F)(F)F)n1` [I-399, N-[2-[4-[[4-[1-[(3S)-2,6-dioxo-3-piperidyl]-3-methyl-2-oxo-benzimidazol-4-yl]piperazin-1-yl]methyl]cyclohexyl]-6-methyl-indazol-5-yl]-6-(trifluoromethyl)pyridine-2-carboxamide] fall in the same range of DC50: 10 to 50 nM for the first, 10 to 50 nM for the second.

Going from `CC(C)Nc1c(C(=O)N[C@H]2CC[C@H](CN3CCN(c4cccc5c4n(C)c(=O)n5C4CCC(=O)NC4=O)CC3)CC2)cnc2c1Oc1ccc(C#N)cc1O2` (some centres unmarked) [I-410] to `CC(C)Nc1cc(-c2ccc3cc(C#N)cnn23)ncc1C(=O)N[C@H]1CC[C@H](CN2CCN(c3cccc4c3n(C)c(=O)n4C3CCC(=O)NC3=O)CC2)CC1` (some centres unmarked) [I-362], the DC50 falls from greater than 200 nM to less than 10 nM.

First: CC(C)Nc1cc(-n2ccc3cc(C#N)cnc32)ncc1-c1cn([C@H]2CC[C@H](CN3CCN(c4cccc5c4n(C)c(=O)n5C4CCC(=O)NC4=O)CC3)CC2)nn1 (some centres unmarked) [I-231]
Second: COc1cc2nn([C@H]3CC[C@H](CN(C)C4CCN(c5cccc6c5n(C)c(=O)n6C5CCC(=O)NC5=O)CC4)CC3)cc2cc1NC(=O)c1cncc(C#N)c1 (some centres unmarked) [I-71, 5-cyano-N-[2-[4-[[[1-[1-(2,6-dioxo-3-piperidyl)-3-methyl-2-oxo-benzimidazol-4-yl]-4-piperidyl]-methyl-amino]methyl]cyclohexyl]-6-methoxy-indazol-5-yl]pyridine-3-carboxamide]
The DC50 of the first is higher: 10 to 50 nM for the first, less than 10 nM for the second.

`COc1cc2nn([C@H]3CC[C@H](CN4CCN(C[C@H]5C[C@H](c6cccc7c(N8CCC(=O)NC8=O)cncc76)C5)CC4)CC3)cc2cc1NC(=O)c1cccc(C(F)(F)F)n1` [I-285] and `COc1cc2nn([C@H]3CC[C@H](CN4CCC(c5cccc6c(N7CCC(=O)NC7=O)cncc56)CC4)CC3)cc2cc1NC(=O)c1cccc(C(F)(F)F)n1` [I-97] cannot be ordered by DC50: less than 10 nM for the first, less than 10 nM for the second.

First: CN(C[C@H]1CC[C@H](n2cc3cc(NC(=O)C4CC4)c(C(C)(C)O)cc3n2)CC1)C1CCN(Cc2cccc3c2n(C)c(=O)n3C2CCC(=O)NC2=O)CC1 (some centres unmarked) [I-1]
Second: Cc1cc2nn([C@H]3CC[C@H](CN4CCN(c5cccc6c5n(C5CC5)c(=O)n6C5CCC(=O)NC5=O)CC4)CC3)cc2cc1NC(=O)c1cccc(C(F)(F)F)n1 (some centres unmarked) [I-304]
The DC50 of the first is higher: greater than 200 nM for the first, 10 to 50 nM for the second.

First: Cc1cccc(C(=O)Nc2cc3sc([C@H]4CC[C@H](C(=O)N5CCC6(CC5)CC(CCNc5cccc7c5C(=O)N(C5CCC(=O)NC5=O)C7=O)C6)CC4)nc3cc2C(C)(C)O)n1 (some centres unmarked) [I-474]
Second: CC(C)(O)c1cc2nc([C@H]3CC[C@H](C(=O)N4CCN(CCCNc5cccc6c5C(=O)N(C5CCC(=O)NC5=O)C6=O)CC4)CC3)sc2cc1NC(=O)c1cccc(C(F)(F)F)n1 (some centres unmarked) [I-493]
The DC50 of the first is higher: greater than 200 nM for the first, less than 10 nM for the second.

`COc1cc2nc([C@H]3CC[C@H](CN(C)CCCCNc4cccc5c4C(=O)N(C4CCC(=O)NC4=O)C5=O)CC3)sc2cc1NC(=O)c1cncc(C#N)c1` (some centres unmarked) [I-456] and `COc1cc2nc([C@H]3CC[C@H](CN(C)CCNc4cccc5c4C(=O)N(C4CCC(=O)NC4=O)C5=O)CC3)sc2cc1NC(=O)c1cncc(Cl)c1` (some centres unmarked) [I-484] cannot be ordered by DC50: greater than 200 nM for the first, greater than 200 nM for the second.

Compared with `O=C1CCN(c2cncc3c(C4CCN(C[C@H]5CC[C@H](n6cc7cc(NC(=O)c8cccc(C(F)(F)F)n8)ncc7n6)CC5)CC4)cccc23)C(=O)N1` [I-103], `COc1cc2nn([C@H]3CC[C@H](CN4CCC(c5ccc6c(N7CCC(=O)NC7=O)cncc6c5)CC4)CC3)cc2cc1NC(=O)c1cncc(C#N)c1` [I-122] is higher in DC50: 10 to 50 nM for the first, 100 to 200 nM for the second.

Compared with `CC(C)(O)c1cc2nc([C@H]3CC[C@H](CN4CCN(CCCNc5cccc6c5C(=O)N(C5CCC(=O)NC5=O)C6=O)CC4)CC3)sc2cc1NC(=O)c1cccc(C#N)n1` (some centres unmarked) [I-440], `Cc1cc2nn([C@H]3CC[C@H](CN4C5CCC4CN(c4cccc6c4n(C)c(=O)n6C4CCC(=O)NC4=O)C5)CC3)cc2cc1NC(=O)c1cccc(C(F)(F)F)n1` (some centres unmarked) [I-398] is lower in DC50: 10 to 50 nM for the first, less than 10 nM for the second.
